The source of these data is paper PMC6105804, “In Vitro and In Vivo Evaluation of APX001A/APX001 and Other Gwt1 Inhibitors against Cryptococcus” (Antimicrobial Agents and Chemotherapy, 2018).

The term MIC denotes the lowest concentration found to suppress growth. Broadly, the MIC90 is an inhibitory concentration at the 90% level, which refers to growth in some studies and to a panel of isolates in others.

In brackets after ≈: the same amount, converted by molar mass. Like-named read-outs stand apart in the source and are kept apart here.

In data set [1] the test system is C. neoformans strain H99. The data set is described as follows: Murine cryptococcal meningitis model with ABT pretreatment (preliminary experiment). In kind it is in vivo, Cryptococcus neoformans. The settings on record: 7 days. On the procedure: In a preliminary experiment, the efficacies of APX001, APX2096, and APX2097 were evaluated in the disseminated model of CM (n = 5 mice/cohort). ABT at 100 mg/kg was administered orally to male CD-1 mice 2 h prior to APX compound administration. Mice were injected with 6.9 × 10^4 CFU of C. neoformans strain H99 per mouse via the lateral tail vein at time zero. Treatment with each prodrug was initiated at about 1 h postinfection by i.p. administration and continued daily for 7 days, with 100-mg/kg ABT being administered orally 2 h prior to each APX compound dose.
(§1) ABT at 100 mg/kg was administered orally to male CD-1 mice at 2 h prior to each APX compound dose. Mice were injected with 6.9 × 10^4 CFU of C. neoformans strain H99 per mouse via the lateral tail vein at time zero. Treatment with the APX compound was initiated at about 1 h postinfection by i.p. administration and continued for 7 days, with 100-mg/kg ABT being administered orally 2 h prior to each APX compound dose. […] Fungal burden data were log10 transformed and evaluated using Kruskal-Wallis tests with Dunn's multiple-comparison test for post hoc analysis (Prism software, v5; GraphPad Software, Inc., San Diego, CA). A P value of ≤0.05 was considered statistically significant (*, P ≤ 0.05; **, P ≤ 0.01). The 95% confidence interval (CI) is presented.
(§2) C. neoformans strain H99 was grown in yeast extract-peptone-dextrose broth at 30°C on a shaker (220 rpm) for 24 h, centrifuged (1,980 relative centrifugal force), and washed twice in phosphate-buffered saline (PBS), resuspended in PBS, and quantified by hemacytometric count. Male CD-1 mice were infected with ∼5 × 10^4 CFU per mouse via lateral tail vein injection of 100 μl. Mice were weighed, and treatment was begun within 1 h after infection. Treatments were administered daily for 7 days. Mice were weighed daily and observed for acute and chronic adverse symptoms. Mice were sacrificed on day 8, and the brain and left lung were homogenized and cultured for quantitative determination of the tissue burden (number of CFU per gram of tissue). Tissues were homogenized for 25 s in 1 ml phosphate-buffered saline using two 6.5-mm steel beads and a Mini-Beadbeater 16 apparatus (Biospec Products, Inc., Bartlesville, OK) and serially diluted in 10-fold steps. Aliquots (100 μl) of homogenate were plated and incubated for 3 to 7 days at 37°C. Fungal burden data were log10 transformed and evaluated using Kruskal-Wallis tests with Dunn's multiple-comparison test for post hoc analysis (Prism software, v5; GraphPad Software, Inc., San Diego, CA). A P value of ≤0.05 was considered statistically significant.

Data set [2] has as its system C. neoformans strain H99. The data set is described as follows: Delayed-treatment model of cryptococcal meningitis. The settings on record: treatment from 24 h after infection, QD 7 days; APX2096 60 mg/kg i.p. + ABT, AMB 3 mg/kg i.p. In kind it is in vivo, Cryptococcus neoformans. On the procedure: As in the previous mouse model, 100-mg/kg ABT (p.o.) was administered 2 h prior to each APX2096 dose (n = 5 mice/cohort). Infection was initiated on day 1, and treatment was initiated 24 h later (day 2) rather than 1 h later. Treatments were administered for 7 days (the final dose was administered on day 8), and mice were sacrificed on day 9 for CFU enumeration.
Male CD-1 mice were infected with 5.4 × 10^4 CFU per mouse via lateral tail vein injection. […] A dose of 100-mg/kg ABT was administered orally 2 h prior to each APX2096 dose. Mice were sacrificed 24 h after the last dose, and the brain and left lung were homogenized and cultured for quantitative determination of the tissue burden (number of CFU per gram of tissue). Fungal burden data were log10 transformed and evaluated using Kruskal-Wallis tests with Dunn's multiple-comparison test for post hoc analysis (Prism software, v5; GraphPad Software, Inc., San Diego, CA). A P value of ≤0.05 was considered statistically significant (*, P ≤ 0.05; **, P ≤ 0.01). The 95% confidence interval (CI) is presented.
Fungal burden data were log10 transformed and evaluated using Kruskal-Wallis tests with Dunn's multiple-comparison test for post hoc analysis (Prism software, v5; GraphPad Software, Inc., San Diego, CA). A P value of ≤0.05 was considered statistically significant.

The nature of data set [3]: Acute toxicity and survival observed in the CM model with ABT. It is filed as in vivo, mouse. To be noted: i.p. dosing + ABT; dose then reduced to 60 mg/kg for surviving mice. On the procedure:
as §1, §2

Data set [4] relates to C. neoformans strain H99. The experiment in a line: Murine cryptococcal meningitis model with ABT, dose-response study. It is filed as in vivo, Cryptococcus neoformans. On the procedure:
A dose-response study was performed with APX2096 and APX2097 to confirm the observed activity. In this study, QD doses of 7.5, 20, and 60 mg/kg were evaluated in conjunction with the administration of ABT. A 60-mg/kg dose QD without ABT was also evaluated as a control.
FIG 3 Dose-response of APX2096 and APX2097 in a murine model of cryptococcal meningitis in conjunction with ABT administration. ABT at 100 mg/kg was administered orally to male CD-1 mice at 2 h prior to each APX compound dose. Mice were injected with 4.8 × 10^4 CFU C. neoformans strain H99 per mouse via the lateral tail vein at time zero. Treatment with the APX compounds was initiated at 1 h postinfection by i.p. administration and continued for 7 days, with 100-mg/kg ABT being administered orally 2 h prior to each APX compound dose. The correction factors for prodrug potencies versus the potencies of the active moieties were similar enough such that the same factor (1.3) was used for all APX compounds. Fungal burden data were log10 transformed and evaluated using Kruskal-Wallis tests with Dunn's multiple-comparison test for post hoc analysis (Prism software, v5; GraphPad Software, Inc., San Diego, CA). […] A P value of ≤0.05 was considered statistically significant (*, P ≤ 0.05; **, P ≤ 0.01; ***, P ≤ 0.001). The 95% confidence interval (CI) is presented.
as §2

Another data set has as its system A. fumigatus MYA3626. The data set is described as follows: Broth microdilution susceptibility testing for molds (CLSI M38-A2). In kind it is cell-based. The settings on record: Aspergillus fumigatus, MYA3626; read-out: MIC or MEC for A. fumigatus MYA3626. From the text: (§3) C. neoformans strains H99, DUMC 118.00, and DUMC 158.03 and C. gattii strains R272 and RSA-MW-3515 were obtained from Duke University. C. albicans 90028, A. fumigatus MYA3626, C. neoformans 14116, C. neoformans 76484, and the pathogenic Cryptococcus reference strains panel (ATCC MP-11) were obtained from the American Type Culture Collection (ATCC; Manassas, VA, USA). The ATCC MP-11 panel consists of strains representing eight molecular types and three subtypes of C. neoformans and C. gattii.
(§4) To establish the antimicrobial activity of the APX001A analogs, broth microdilution susceptibility testing was performed according to Clinical and Laboratory Standards Institute (CLSI) guidelines M27-A3 ([47]) for yeasts and M38-A2 for molds ([48]). APX001A and analogs were first diluted in DMSO to obtain intermediate dilutions. These were further diluted in microtiter plates to obtain a final concentration of 2 to 0.002 μg/ml. One microliter of DMSO was added to the no-drug control wells. The solutions were mixed on a plate shaker for 10 min, and the plates were incubated at 35°C for 40 to 48 h (C. albicans, A. fumigatus) and 72 h (C. neoformans). The minimum concentration that led to a 50% reduction in fungal growth compared to that for the control (determined with the aid of a reading mirror) was determined as the MIC for C. albicans and C. neoformans. The minimum concentration that led to the shortening of hyphae compared to the hyphal growth in DMSO control wells was determined as the minimum effective concentration (MEC) for A. fumigatus (as read for the echinocandins). The use of the MIC and MEC endpoints for APX001A (formerly E1210) against yeasts and molds, respectively, has been described previously ([19][–][21]). For the cryptococcal synergy studies, APX001A and APX2020 MIC values were read at 50% inhibition.

Data set [5] relates to C. neoformans. The experiment in a line: Broth microdilution susceptibility testing (CLSI M27-A3). In kind it is cell-based, Cryptococcus neoformans. To be noted: Cryptococcus neoformans.
Excerpt: as §3, §4

Data set [6] concerns FLC-susceptible and FLC-nonsusceptible/resistant strains of C. neoformans and C. gattii. The data set is described as follows: Broth microdilution, summary over the 18-strain Cryptococcus collection. In kind it is cell-based, Cryptococcus neoformans and Cryptococcus gattii. The settings on record: 18 strains of C. neoformans and C. gattii. On the procedure: as §4, with “The minimum concentration that led to the shortening of hyphae compared to the hyphal growth in DMSO control wells was determined as the minimum effective concentration (MEC) for A. fumigatus (as read for the echinocandins).” left out
(In broth dilution the organism is exposed to a series of concentrations in liquid medium.)

Another data set relates to C. gattii. The experiment in a line: Broth microdilution susceptibility testing (CLSI M27-A3). In kind it is cell-based. The settings on record: Cryptococcus gattii.
Excerpt: as §3, §4

Data set [7] deals with C. neoformans. Details: method as in PMID 15078612. To be noted: U.S. isolates; cited from earlier work.
For a further data set, the system named is C. albicans 90028. The experiment in a line: Broth microdilution susceptibility testing (CLSI M27-A3). The settings on record: Candida albicans, 90028; read-out: MIC, C. albicans 90028. It is filed as cell-based, Candida albicans.
Excerpt: as §3, §4

Setting [8] is: 34 mg/kg QD i.p. + ABT 100 mg/kg p.o.

In the case of `Nc1c(-c2cc(Cc3ccc(Oc4cccc(F)n4)cc3)no2)ccc[n+]1COP(=O)([O-])O` [APX2096], the “reduction in brain fungal burden” value amounted to 7.05 log10 CFU/g in the data set on C. neoformans strain H99 [1] (setting [8]), 7.13 log10 CFU/g in the data set with C. neoformans strain H99 [1] (60 mg/kg i.p. (dose reduced after day 1) + ABT) and 2.95 log10 CFU/g in the data set on C. neoformans strain H99 [4] (20 mg/kg QD i.p. + ABT). In addition, the “reduction in lung fungal burden” value with C. neoformans strain H99 [1] (setting [8]) is “approximately 4.67 log10 CFU/g”; in the data set on C. neoformans strain H99 [1] (60 mg/kg i.p. (dose reduced after day 1) + ABT, burden below the limit of detection), “approximately 4.67 log10 CFU/g”; in the data set on C. neoformans strain H99 [4] (20 mg/kg QD i.p. + ABT) it was 3.69 log10 CFU/g. The “reduction in brain tissue fungal burden vs untreated control” value in the data set on C. neoformans strain H99 [2] is 6.84 log10 CFU/g. In addition, the “reduction of the lung tissue fungal burden vs untreated control” value in the data set on C. neoformans strain H99 [2] turned out to be 4.59 log10 CFU/g. The “Acute toxicity observed (day of treatment)” value in data set [3] is given as “day 1”. For the same compound, the “reduction in lung burden, without ABT” value in the data set with C. neoformans strain H99 [4] (60 mg/kg/day i.p. without ABT, nonsignificant) came to 0.74 log10 CFU/g.

For the compound `C[C@@H]1[C@H](O)[C@@H](C)/C=C/C=C/C=C/C=C/C=C/C=C/C=C/[C@H](O[C@@H]2O[C@H](C)[C@@H](O)[C@H](N)[C@@H]2O)C[C@@H]2O[C@](O)(C[C@@H](O)C[C@@H](O)[C@H](O)CC[C@@H](O)C[C@@H](O)CC(=O)O[C@H]1C)C[C@H](O)[C@H]2C(=O)O` [AMB, amphotericin B, reference compound], the MIC in the data set on A. fumigatus MYA3626 was 1 mg/L; with C. neoformans [5] (72 h, Table 1, 50% growth inhibition for FLC, caspofungin and APX compounds, 100% for AMB, 72 h, read-out: MIC, C. neoformans H99) it was 0.25 mg/L; with C. neoformans [5] (C. neoformans isolate 14116, read-out: MIC) it was 0.25 mg/L; in the data set on C. neoformans [5] (C. neoformans isolate 76484, read-out: MIC), 0.25 mg/L; in the data set with C. neoformans [5] (C. neoformans isolate DUMC 118.00 (FLC resistant), read-out: MIC), 0.25 mg/L; with C. neoformans [5] (C. neoformans isolate DUMC 158.03 (FLC resistant), read-out: MIC), 1 mg/L. Also, the MIC was 0.25 mg/L with C. neoformans [5] (C. neoformans isolate MYA-4564, read-out: MIC); 0.125 mg/L in the data set with C. neoformans [5] (C. neoformans isolate MYA-4565, read-out: MIC); 0.25 mg/L in the data set with C. neoformans [5] (C. neoformans isolate MYA-4566, read-out: MIC); 0.25 mg/L in the data set on C. neoformans [5] (C. neoformans isolate MYA-4567, read-out: MIC); 0.25 mg/L with C. neoformans [5] (Table 2, C. neoformans isolate H99, read-out: MIC); 0.215 mg/L in data set [6] (read-out: Geometric mean MIC). The MIC came to 0.25 mg/L in the data set on C. gattii (C. gattii isolate MYA-4093, read-out: MIC); 0.25 mg/L with C. gattii (C. gattii isolate MYA-4094, read-out: MIC); 0.063 mg/L with C. gattii (C. gattii isolate MYA-4560 (first listing, r17), read-out: MIC); 0.063 mg/L in the data set on C. gattii (C. gattii isolate MYA-4560 (second listing, r21), read-out: MIC); 0.25 mg/L in the data set with C. gattii (C. gattii isolate MYA-4561, read-out: MIC); 0.25 mg/L in the data set on C. gattii (C. gattii isolate MYA-4562, read-out: MIC). The MIC with C. gattii (C. gattii isolate MYA-4563, read-out: MIC) amounted to 0.125 mg/L; in the data set on C. gattii (C. gattii isolate MYA-4877, read-out: MIC), 0.25 mg/L; in the data set with C. gattii (C. gattii isolate RSA-MW-3615 (FLC resistant), read-out: MIC) it was 0.25 mg/L; with C. gattii (Table 1, 50% growth inhibition for FLC, caspofungin and APX compounds, 100% for AMB, read-out: MIC, C. gattii WM276) it was 0.25 mg/L; in the data set with C. albicans 90028, 1 mg/L. The figures for the MIC90 (in data set [6]; in the data set on C. neoformans [7]) were 0.25 mg/L and 2 mg/L (≈ 2.16 µM), respectively. Besides, the “reduction of the lung tissue fungal burden vs untreated control” value in the data set on C. neoformans strain H99 [2] is given as 4.02 log10 CFU/g.
